Results published in patent US5084481A, “Method of treating inflammatory diseases with pharmaceutical composition containing dihydrolipoic acid as active substance” (Asta Pharma Aktiengesellschaft, priority 1989, dated 1992).
“Also recorded” adds a separate entry of the source.

Legend:
[1] = Randall Selitto inflammation pain test in rat; assay type: in vivo; settings: for ED50: 0.5 h, pain threshold 30 minutes after substance, read-out: analgesically effective ED50, Randall Selitto test
Experimental: The following is a brief description of the pharmacological test methods specially mentioned herein: Randall Selitto Test (inflammatory pain in the rat):
On the basis of the method after RANDALL and SELITTO (L.O. Randall and J. Selitto, Arch. int. Pharmacodyn., Vol. 111, pages 409-418 (1957)) 0.1 ml of a 20% suspension of brewer's yeast (in demineralized water) is injected subplantar into the right rear paw of rats. After 21/2 hours the test substances are given and 30 minutes later the pain threshold is measured as a pressure (in grams) on the inflamed paw using an algesimeter (equipment by Ugo BASILE, Milan/Italy). The criterion is the defense reaction of the animals in pulling the paw away and/or escaping from the technician's grip. The effect of the substance is determined by the increase in the pain threshold compared to an untreated control group. The course of the experiment differs from the original method in that the substances are only administered 21/2 hours after appearance of the edema and not given simultaneously therewith. This is done in order to prevent the development of the edema being inhibited by any possible anti-inflammatory action and the analgesia being masked or feigned.
The ED50 is determined using the linear regression method. The ED50 is then the dose in mg/kg for which a 50% analgesic effect is calculated.

[2] = Further investigatory models (MgSO4 writhing, adjuvans arthritis, mouse ear edema, arthrosis, intestinal ulceration, colitis, ethanol ulcer, UV-B radiation in healthy subjects); assay type: in vivo, rat, chicken; settings: models listed, stated collectively
From the text: MgSO4 writhing test in the mouse after GYIRES et al. (Arch. int. pharmacodyn. therap. 267, 131-140, 1984)
Adjuvans arthritis in the rat after NEWBOULD (Brit. J. Pharmacol. 21, 127-136, 1963)
TPA or arachidonic acid-induced mouse ear edema after YOUNG et al. (J. Invest. Dermatol. 80, 48-52, 1983)
Na-mono-iodine acetate-induced arthrosis in rats or chickens after KALBHEN, in: Arthrosis deformans, Eular-Verlag, Basel/Switzerland, 1982
TPA-induced arthrosis in rats after WEISCHER (Agents and Actions 23, 1/2, 1988)
Intestinal ulceration in rats after DEL SOLDATO (Agents and Actions 16, 393-396, 1985)
Colitis model in the rat after WEISCHER (Agents and Actions, 1988)
Ethanol ulcer model in the rat (determination of, for example, a cytoprotective effect)
The effect of topical DL-dihydrolipoic acid in the complex of symptoms induced by UV-B radiation in healthy subjects

[3] = Acetic acid writhing pain test in mouse; assay type: in vivo; settings: for ED50: read-out: analgesically effective ED50, acetic acid writhing test
From the text: Acetic acid test (Writhing test) in the mouse
In the acetic acid test after KOSTER et al. (Fed. proc., Vol. 18, page 412 (1959)) the pain irritation is triggered by an intraperitoneal injection of 1% acetic acid. The pain reaction is expressed in the form of a characteristic stretching of the animals ("writhing syndrome") which continues at irregular intervals for some time after the acetic acid injection. The dose-related inhibition of the frequency of writhing movements as compared to an untreated control group is expressed as an analgesic effect in percent. Evaluation is effected by determining the ED50 (linear regression method). The ED50 is the dose in mg/kg which achieves a 50% inhibition in the writhing syndrome.
The characteristic feature of the acetic acid test is that it not only determines the effect of strong, centrally acting analgesics, but also that of predominantly peripherally acting analgesic, antipyretic and anti-inflammatory agents such as phenylbutazone, indomethacin, etc.

[4] = PAF-acether edema in the rat; assay type: in vivo; settings: for % effect, PAF-acether edema: rat, given 0.5 hours before triggering, edema measured 1 hour thereafter
Experimental: (Platelet Aggregating Factor)-acether-edema in the rat
The principle of this method is to provoke a locally limited edema or inflammation in the rat paw by means of the subplantar injection of 2 μg of PAF acether per animal. The investigations were carried out on the basis of the method of SWINGLE and REITER (Agents and actions, 18, 358-365, (1986)). The animals received the test substances 0.5 hours before triggering of the edema. The edema was measured 1 hour thereafter. The ED50 was calculated using the linear regression method.

[5] = rats and mice; solutions in water or physiological sodium chloride containing venom and substance; cited from earlier work
[6] = Cytoprotective effect in animal trials; settings: in vivo
[7] = Carragheen-induced edema test in the rat (anti-inflammatory effect); assay type: in vivo; settings: for ED50: read-out: anti-inflammatorally effective ED50, carragheen edema
Experimental: Carragheen-edema test for anti-inflammatory effect
The examination is carried out in carragheen-induced edema of rat paw on the basis of the method of MoRSDORF and colleagues (Arch. int. Pharmacodyn. 192, 111-127 (1971)). The anti-inflammatory effect is for example quoted as edema inhibition in percent as compared to the untreated control group. […]. The substance is given orally or intraperitoneally […]. The ED50 is the dose in mg/kg at which there is a 50% inhibition of the paw edema.

[8] = Comparison of the effect with alpha-lipoic acid and S-adenosyl-L-methionine (animal experiments); assay type: in vivo
[9] = Acute toxicity in the mouse (LD50, Litchfield and Wilcoxon); settings: in vivo, oral application
Experimental: The acute toxicity of the invention in the mouse (expressed as the LD50 mg/kg; method of LITCHFIELD and WILCOXON, J. Pharmacol. Exp. Ther. 95:99, (1949)) is for example above 200 mg/kg in the case of oral application.

SMILES: O=C(O)CCCCC(S)CCS (racemic) [dihydrolipoic acid, 6,8-dimercapto-octanoic acid]
- analgesic effect (in words) ([1]; Randall Selitto inflammation pain test in rat): good analgesic effect
- ED50 ([1]; ip, intraperitoneally, rat): 0.14 mg/kg
- analgesic effect superior to that of alpha-lipoic acid by a factor ([1]; peroral application, Randall Selitto, rat): ≥ 2.8
- ED50 ([1]; po, per os, rat): 16.2 mg/kg
- minimal effective dose ([1]; po, per os, rat, read-out: minimum dose to produce an analgesic effect in the Randall Selitto pain test): 5 mg/kg
- analgesic, anti-inflammatory, anti-arthrotic and cytoprotective effect in further models (in words) [2]: good analgesic, anti-inflammatory, anti-arthrotic and cytoprotective effect
- analgesic effect (in words) ([3]; acetic acid writhing pain test in mouse): good analgesic effect
- ED50 ([3]; ip, intraperitoneally, mouse): 4.6 mg/kg
- analgesic effect superior to that of alpha-lipoic acid by a factor ([3]; peroral application, acetic acid writhing, mouse): at least 1.9
- ED50 ([3]; po, per os, mouse): 26.8 mg/kg
- % effect, PAF-acether edema ([4]; 25 mg/kg intraperitoneally): 14%
- % effect, PAF-acether edema ([4]; 50 mg/kg intraperitoneally): 63%
- % effect, PAF-acether edema ([4]; 200 mg/kg intraperitoneally): 73%
- inhibition of vasopermeability (in words) ([4]; PAF edema in the rat): good inhibition of vasopermeability
- inactivation of snake venom (in words) [5]: inactivates snake venom
- cytoprotective effect (in words) [6]: good cytoprotective effect; also recorded: specific cytoprotective effect
- anti-inflammatory activity (in words) ([7]; carragheen-induced edema in the rat): good anti-inflammatory activity
- ED50 ([7]; ip, intraperitoneally, rat): 7.7 mg/kg
- anti-inflammatory activity superior to that of alpha-lipoic acid by a factor ([7]; peroral application, carragheen edema, rat): at least 1.9
- ED50 ([7]; po, per os, rat): 26 mg/kg
- minimal effective dose ([7]; po, per os, rat, read-out: minimum dose to produce an anti-inflammatory effect in the carragheen-induced edema test): 5 mg/kg
- time after application at which the full effect appears ([8]; animal experiments): 0.5 h
- effect stronger than that of alpha-lipoic acid by a factor ([8]; in vivo): 2-3
- LD50 [9]: > 200 mg/kg
